Data reported in BigSolDB 2.1.

O=C(Nc1ccc(F)cc1F)c1cccnc1Oc1cccc(C(F)(F)F)c1
solubility (mole fraction)
Details	278.15 K	283.15 K	288.15 K	293.15 K	298.15 K	303.15 K	308.15 K	313.15 K	318.15 K	323.15 K
in ethanol	0.000246	0.000325	0.000425	0.00055	0.000703	0.000894	0.00113	0.00142	0.00177	0.0022
in ethyl acetate	0.0105	0.0125	0.015	0.0176	0.0206	0.024	0.0281	0.0322	0.0371	0.0429
in isopropanol	4.4e-05	7.09e-05	0.000114	0.000186	0.000292	0.000456	0.00069	0.00104	0.00158	0.00232
in methanol	0.000223	0.0003	0.000385	0.000489	0.000633	0.000799	0.000999	0.00125	0.00155	0.00193
in water	1.52e-07	2e-07	2.53e-07	3.15e-07	3.93e-07	4.84e-07	5.94e-07	7.19e-07	8.81e-07	1.07e-06
